The text below walks through data of patent publication US8648076B2, “Cysteine protease inhibitors and their therapeutic applications” (Hybrigenics SA, priority 2005, dated 2014).

Molecules are shown by their SMILES. Read-outs that look alike come from different tables or passages of the source. A value given as a limit tells only on which side of the number the result lay.

Holding throughout (assay type): biochemical
In experiment [1] the target is T1, Uch-L3 (Homo sapiens, UniProt P15374).
T1 sequence (P15374 1-230): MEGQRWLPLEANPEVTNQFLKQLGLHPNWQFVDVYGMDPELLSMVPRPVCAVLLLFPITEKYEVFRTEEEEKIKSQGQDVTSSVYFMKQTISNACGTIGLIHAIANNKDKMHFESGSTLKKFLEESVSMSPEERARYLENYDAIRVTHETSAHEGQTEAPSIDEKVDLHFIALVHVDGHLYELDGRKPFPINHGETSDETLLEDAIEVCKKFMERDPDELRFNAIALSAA
As to the kind of experiment: UCH-L3 activity assay. The following applies: 400 nM Ub-AMC, 13 pM enzyme, 30 min pre-incubation at 25° C., 60 min at 37° C.; sigmoidal fit; AF: Autofluorescent; read-out: Uch-L3 (inhibition of cysteine protease activity). On the procedure:
Bovine Serum Albumin 0.05 mg·ml^−1 pH7.6). Compounds stocks (100 mM) were stored at −20° C. in DMSO. […] Reactions were performed as duplicates in Black LJL 96 well plates (HE microplates; Molecular Devices; 20 μl final reaction volume). The substrate concentration for Uch-L3 was 400 nM Ub-AMC (Boston Biochem). The concentration of the enzyme (Uch-L3) in specificity assays was 13 pM. The concentrations were determined in order to perform specificity assays under initial velocities at fixed substrate concentration. Compounds were pre-incubated with enzymes for 30 minutes at 25° C. Reactions were initiated by addition of substrate to the plates containing the enzymes (+/−compounds) diluted in assay buffer. Reactions were incubated for 60 minutes at 37° C. Reactions were stopped by adding acetic acid (100 mM final). Readings were performed on a Pherastar Fluorescent Reader (BMG). δ Emission 380 nm; δ Excitation=460 nm. Data (mean values+/− standard deviation) were analyzed as % of control (no compound) and plotted as percentage versus the Log of the compound concentration using GraphPad (Prism). Data were fitted to a sigmoidal model (variable slope).

Experiment [2] has as its target T2, USP7 (Homo sapiens, UniProt Q93009).
T2 construct: His tag (from pFastBac-HT vector) (N); made in house; host or cells: insect cells (Sf9 or High Five), baculovirus
As to the kind of experiment: USP7 activity assay.

Experiment [3] addresses T3, USP5 (Homo sapiens, UniProt P45974).
T3 sequence (P45974 1-858): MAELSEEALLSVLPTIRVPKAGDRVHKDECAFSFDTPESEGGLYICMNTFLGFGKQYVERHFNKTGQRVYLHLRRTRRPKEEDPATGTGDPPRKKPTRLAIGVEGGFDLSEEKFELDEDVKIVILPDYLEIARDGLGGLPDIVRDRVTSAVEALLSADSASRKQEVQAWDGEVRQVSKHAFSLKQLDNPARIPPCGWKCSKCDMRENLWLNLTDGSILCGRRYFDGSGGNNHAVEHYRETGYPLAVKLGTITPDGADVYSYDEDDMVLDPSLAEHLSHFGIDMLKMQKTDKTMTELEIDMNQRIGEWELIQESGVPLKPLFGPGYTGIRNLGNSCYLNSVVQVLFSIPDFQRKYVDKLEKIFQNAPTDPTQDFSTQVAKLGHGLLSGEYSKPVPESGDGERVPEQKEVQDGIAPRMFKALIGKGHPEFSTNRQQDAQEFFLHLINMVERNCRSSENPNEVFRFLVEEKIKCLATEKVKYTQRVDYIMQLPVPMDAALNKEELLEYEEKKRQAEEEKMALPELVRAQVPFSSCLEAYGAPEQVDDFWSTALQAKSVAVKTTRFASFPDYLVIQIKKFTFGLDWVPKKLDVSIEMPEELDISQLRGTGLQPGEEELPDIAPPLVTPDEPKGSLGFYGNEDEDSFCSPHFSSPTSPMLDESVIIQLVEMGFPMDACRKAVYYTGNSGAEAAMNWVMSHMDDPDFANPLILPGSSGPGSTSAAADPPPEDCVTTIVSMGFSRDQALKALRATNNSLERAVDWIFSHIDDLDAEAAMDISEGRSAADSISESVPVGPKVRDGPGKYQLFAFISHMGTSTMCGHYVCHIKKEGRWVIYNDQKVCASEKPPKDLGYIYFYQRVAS
As to the kind of experiment: USP5 activity assay. The following applies: 400 nM Ub-AMC, 300 pM enzyme, 30 min pre-incubation at 25° C., 60 min at 37° C.; sigmoidal fit; AF: Autofluorescent; read-out: USP 5 (inhibition of cysteine protease activity). On the procedure: Bovine Serum Albumin 0.05 mg·ml^−1 pH7.6). Compounds stocks (100 mM) were stored at −20° C. in DMSO. […] Reactions were performed as duplicates in Black LJL 96 well plates (HE microplates; Molecular Devices; 20 μl final reaction volume). The substrate concentration for USP5 was 400 nM Ub-AMC (Boston Biochem). The concentrations of the enzyme (USP5) in specificity assays was 300 pM. The concentrations were determined in order to perform specificity assays under initial velocities at fixed substrate concentration. Compounds were pre-incubated with enzymes for 30 minutes at 25° C. Reactions were initiated by addition of substrate to the plates containing the enzymes (+/− compounds) diluted in assay buffer. Reactions were incubated for 60 minutes at 37° C. Reactions were stopped by adding acetic acid (100 mM final). Readings were performed on a Pherastar Fluorescent Reader (BMG). λ Emission 380 nm; λ Excitation=460 nm. Data (mean values +/− standard deviation) were analyzed as % of control (no compound) and plotted as percentage versus the Log of the compound concentration using GraphPad (Prism). Data were fitted to a sigmoidal model (variable slope).

The mark [4] stands for this setting: 400 nM Ub-AMC, 152 pM enzyme, 30 min pre-incubation at 25° C., 60 min at 37° C., sigmoidal fit, read-out: USP 7 (inhibition of cysteine protease activity).

T2 sequence (Q93009 whole entry): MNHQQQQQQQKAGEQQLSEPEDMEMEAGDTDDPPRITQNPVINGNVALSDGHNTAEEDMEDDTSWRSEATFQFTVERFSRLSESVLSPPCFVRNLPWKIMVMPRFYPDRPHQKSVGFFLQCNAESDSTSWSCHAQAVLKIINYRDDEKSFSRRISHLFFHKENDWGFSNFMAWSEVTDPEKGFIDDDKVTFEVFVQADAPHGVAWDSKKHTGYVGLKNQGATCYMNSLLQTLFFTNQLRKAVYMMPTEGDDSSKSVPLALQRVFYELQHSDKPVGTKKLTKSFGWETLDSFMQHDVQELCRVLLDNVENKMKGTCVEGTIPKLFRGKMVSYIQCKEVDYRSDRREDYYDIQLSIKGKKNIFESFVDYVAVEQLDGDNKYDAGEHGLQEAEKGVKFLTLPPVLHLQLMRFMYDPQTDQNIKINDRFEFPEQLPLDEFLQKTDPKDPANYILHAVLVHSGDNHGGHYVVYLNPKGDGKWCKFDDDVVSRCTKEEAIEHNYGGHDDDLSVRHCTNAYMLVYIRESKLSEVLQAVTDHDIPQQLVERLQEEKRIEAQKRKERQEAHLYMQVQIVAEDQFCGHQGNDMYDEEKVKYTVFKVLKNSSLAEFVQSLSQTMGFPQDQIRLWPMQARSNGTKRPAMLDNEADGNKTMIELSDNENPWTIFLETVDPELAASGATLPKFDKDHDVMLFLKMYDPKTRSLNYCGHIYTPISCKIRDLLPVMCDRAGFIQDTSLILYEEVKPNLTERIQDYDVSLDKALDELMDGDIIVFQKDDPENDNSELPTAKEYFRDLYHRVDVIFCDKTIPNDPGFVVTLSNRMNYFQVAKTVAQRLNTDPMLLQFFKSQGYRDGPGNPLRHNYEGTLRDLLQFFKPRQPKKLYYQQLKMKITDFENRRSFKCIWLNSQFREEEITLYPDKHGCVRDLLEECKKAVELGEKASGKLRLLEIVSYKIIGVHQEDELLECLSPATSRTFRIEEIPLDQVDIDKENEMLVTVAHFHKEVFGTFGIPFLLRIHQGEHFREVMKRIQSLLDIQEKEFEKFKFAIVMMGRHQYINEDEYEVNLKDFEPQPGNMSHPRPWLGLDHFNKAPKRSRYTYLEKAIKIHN

For `N#Cc1nc2c(nc1Cl)-c1ccccc1C2=O` [Example 9, 3-chloro-9-oxo-9H-indeno[1,2-b]pyrazine-2-carbonitrile], the IC50 in experiment [1] was 8.8 µM; in experiment [2] (setting [4]), > 100 µM; in experiment [3], > 100 µM.
Consider `N#Cc1nc2c(nc1C(N)=O)-c1ccccc1/C2=N\O` [Example 11, 2-cyano-9-[hydroxyimino]-9H-indeno[1,2-b]pyrazine-3-carboxylic acid amide], for which the figures for the IC50 in experiment [1], in experiment [2] (setting [4]) and in experiment [3] were 0.6 µM, 13 µM and 2.1 µM, respectively.
`N#Cc1nc2c(nc1C#N)-c1ccccc1C2=NO` [Example 12, 9-[hydroxyimino]-9H-indeno[1,2-b]pyrazine-2,3-dicarbonitrile]: the IC50 is 1.3 µM in experiment [1], > 100 µM in experiment [2] (setting [4]) and 45 µM in experiment [3].
For `CON=C1c2ccccc2-c2nc(C#N)c(C#N)nc21` [Example 13a, 9-(methoxyimino)-9H-indeno[1,2-b]pyrazine-2,3-dicarbonitrile], the IC50 in experiment [1] is 2.2 µM; in experiment [2] it was > 100 µM; in experiment [3], 19.5 µM.
For the compound `N#Cc1nc2c(nc1C#N)-c1ccccc1/C2=N/Oc1ccccc1` [Example 13e, 9-Phenoxyimino-9H-indeno[1,2-b]pyrazine-2,3-dicarbonitrile], the results for the IC50 in experiment [1], in experiment [2] (setting [4]) and in experiment [3] were 0.54 µM, > 100 µM and 32 µM, respectively.
Turning to `Cc1cccc2c1Cc1nc(C#N)c(C#N)nc1-2` [Example 16c, 8-Methyl-9H-indeno[1,2-b]pyrazine-2,3-dicarbonitrile], the IC50 in experiment [1], in experiment [2] (setting [4]) and in experiment [3] was > 100 µM throughout.
`COc1ccc2c(c1)-c1nc(C#N)c(C#N)nc1C2=O` [Example 17a, 6-Methoxy-9-oxo-9H-indeno[1,2-b]pyrazine-2,3-dicarbonitrile]: the values for the IC50 in experiment [1], in experiment [2] (setting [4]) and in experiment [3] were 7 µM, > 100 µM and 29 µM, respectively.
For `COc1cc2c(cc1OC)-c1nc(C#N)c(C#N)nc1C2=O` [Example 17b, 6,7-Dimethoxy-9-oxo-9H-indeno[1,2-b]pyrazine-2,3-dicarbonitrile] the same measures were 5.4 µM, 10.2 µM and > 100 µM.
For `Cc1cccc2c1C(=O)c1nc(C#N)c(C#N)nc1-2` [Example 17c, 8-Methyl-9-oxo-9H-indeno[1,2-b]pyrazine-2,3-dicarbonitrile] the same measures were 2 µM, > 100 µM and 60 µM.
Consider `COc1ccc2c(c1OC)C(=O)c1nc(C#N)c(C#N)nc1-2` [Example 17d, 7,8-Dimethoxy-9-oxo-9H-indeno[1,2-b]pyrazine-2,3-dicarbonitrile], for which the figures for the IC50 in experiment [1], in experiment [2] (setting [4]) and in experiment [3] were 0.77 µM, 18 µM and 2.5 µM, respectively.
In the case of `Cc1ccc2c(c1)-c1nc(C#N)c(C#N)nc1C2=O` [Example 17e, 6-Methyl-9-oxo-9H-indeno[1,2-b]pyrazine-2,3-dicarbonitrile], the IC50 in experiment [1] is 2.1 µM; in experiment [2] (setting [4]), 7.2 µM; in experiment [3] it was 7.8 µM.
The matching figures for `COc1ccc(OC)c2c1C(=O)c1nc(C#N)c(C#N)nc1-2` [Example 17f, 5,8-Dimethoxy-9-oxo-9H-indeno[1,2-b]pyrazine-2,3-dicarbonitrile]: 0.6 µM, 12.7 µM and 3.3 µM.
As for `N#Cc1nc2c(nc1C#N)-c1ccc(Cl)cc1C2=O` [Example 17g, 7-Chloro-9-oxo-9H-indeno[1,2-b]pyrazine-2,3-dicarbonitrile], the results for the IC50 in experiment [1], in experiment [2] (setting [4]) and in experiment [3] were 0.07 µM, 0.53 µM and 0.16 µM, respectively.
The matching figures for `N#Cc1nc2c(nc1C#N)-c1ccc(F)cc1C2=O` [Example 17h, 7-Fluoro-9-oxo-9H-indeno[1,2-b]pyrazine-2,3-dicarbonitrile]: 0.33 µM, 4.3 µM and 1 µM.
The matching figures for `COc1ccc2c(c1)C(=O)c1nc(C#N)c(C#N)nc1-2` [Example 17i, 7-Methoxy-9-oxo-9H-indeno[1,2-b]pyrazine-2,3-dicarbonitrile]: 3.1 µM, > 100 µM and 23 µM.
The matching figures for `N#Cc1nc2c(nc1C#N)-c1ccc(O)cc1C2=O` [Example 17j, 7-Hydroxy-9-oxo-9H-indeno[1,2-b]pyrazine-2,3-dicarbonitrile]: 8 µM, 66 µM and > 100 µM.
Regarding `N#Cc1nc2sc3ccccc3c2nc1C#N` [Example 19, benzo[4,5]thieno[2,3-b]pyrazine-2,3-dicarbonitrile], the IC50 in experiment [1], in experiment [2] (setting [4]) and in experiment [3] was > 100 µM in each case.
For the compound `N#Cc1nc2c(nc1C#N)C(=O)c1ccccc1C2=O` [Example 20, 5,10-dioxo-5,10-dihydro-benzo[g]quinoxaline-2,3-dicarbonitrile], the IC50 in experiment [1] was 39.6 µM; in experiment [2], > 100 µM; in experiment [3], > 100 µM.
`N#CNc1nc2c(nc1C#N)C(=O)c1ccccc1-2` [Example 21, 2-cyano-9-oxo-9H-indeno[1,2-b]pyrazin-3-yl-cyanamide]: the IC50 in experiment [1], in experiment [2] (setting [4]) and in experiment [3] was > 100 µM throughout.
On to `CCSc1nc2c(nc1C#N)C(=O)c1ccccc1-2` [Example 23, 3-ethylsulfanyl-9-oxo-9H-indeno[1,2-b]pyrazine-2-carbonitrile], for which the IC50 in experiment [1] was 86 µM; in experiment [2] (setting [4]) it was > 100 µM; in experiment [3], > 100 µM.
For the compound `N#Cc1nc2c(nc1CC(N)=O)-c1ccccc1C2=O` [Example 26, 2-(2-cyano-9-oxo-9H-indeno[1,2-b]pyrazin-3-yl)-acetamide], the results for the IC50 in experiment [1], in experiment [2] and in experiment [3] were 1.6 µM, > 100 µM and 60 µM, respectively.
For `N#Cc1nc2c(nc1C#N)-c1ccccc1C2=NOCCOc1ccccc1` [Example 27a, 9-(2-Phenoxy-ethoxyimino)-9H-indeno[1,2-b]pyrazine-2,3-dicarbonitrile] the same measures were 10.5 µM, > 100 µM and > 100 µM.
